Source: patent US5063210A, “Use of sulfated polysaccharides to decrease cholesterol and fatty acid absorption” (priority 1989, dated 1991)

Columns and labels:
Format in all cases: biochemical
[1] = system: human pancreatic cholesterol esterase; assay: Inhibition of human pancreatic cholesterol esterase, hydrolysis of cholesteryl 14C-oleate in phosphatidylcholine vesicles; details: for IC50 / IC50, inhibition of cholesterol esterase (cholesteryl oleate hydrolysis): substrate cholesteryl 14C-oleate, 37° C., 15 min; for IC50: molar values from assumed molecular weights
[2] = target: human 100 kDa cholesterol esterase; assay: Inhibition of triolein hydrolysis by the human 100 kDa cholesterol esterase; details: substrate triolein instead of cholesteryl oleate
Protocol: Alginic acid from Macrocystis pyrifera (kelp) was dissolved in water at a concentration of 1 mg/ml. This stock solution was used to prepare various polysaccharide concentrations down to 10^-5 mg/ml. Human pancreatic cholesterol esterase was purified as described by Bosner et al., Proc. Nat'l. Acad. Sci., 85, 7438 (1988). To measure cholesterol esterase inhibition by alginic acid, 50 μl of cholesterol esterase (10 μg/ml), 75 μl of phosphatidylcholine vesicles containing cholesteryl ^14 C-oleate (1 mM 2,000 CPM/nmole), 25 μl of 100 mM taurocholate, 120 μl of 150 mM Tris, pH 7.5 and 30 μl of test alginic acid solution were incubated at 37° C. for fifteen minutes. The assay was quenched by placing the reaction vessels in a 4° C. ice bath and by adding 0.6 ml of 0.3 N NaOH and 3 ml of benzene/chloroform/methanol (1.0/1.2/0.5). The quenched reactions were vortexed for 30 seconds, centrifuged at 3,000 g for 15 minutes and 1 ml of the upper aqueous phase was added to 7 ml of Aquasol-2 (DuPont) with 0.025 ml of 6 N HCl. These mixtures were vortexed for one minute and counted for ^14 C-oleate. The counts were compared to a sample which contained cholesterol esterase but no alginic acid to determine the percentage of inhibition.
(The same assay procedure was used as described in Part I, only triolein was used instead of cholesteryl oleate.) As shown in the table below, the IC50 for inhibition of triolein hydrolysis is nearly the same as that for cholesteryl oleate hydrolysis.

cholesterol esterase = assay: Baking stability: cholesterol esterase inhibition by water extract of a baked corn muffin containing the inhibitor; details: baked fifteen minutes in a 400° oven
Protocol: The sulfated polysaccharides described here retain their inhibitory activity for prolonged periods at elevated temperatures. […] For example, 109 mg of cellulose sulfate were added to 198 gm (7 oz) of corn muffin mix (Gold Medal®) and the solid ingredients were thoroughly mixed together. After the addition of one egg and one-third cup milk, the muffin mix was stirred fifteen times. The mixture was poured into nine muffin tins and baked for fifteen minutes in a 400° oven. The next day one muffin was broken up, added to 100 ml of water and allowed to stand for fifteen minutes. The mixture was centrifuged and the clear supernatant was assayed for the presence of cholesterol esterase inhibition. The IC50 of this solution was achieved when this solution was diluted 10^3 -10^4 times.

Row | Substance | Inhibition of cholesterol esterase (in words) [1] | IC50 [1] [nM] | IC50 [2] [nM] | IC50, inhibition of cholesterol esterase (cholesteryl oleate hydrolysis) [1] [µg/mL] | Stability of inhibitory activity under baking conditions / elevated temperatures (cholesterol esterase) | Enhancement Factor ([1]; IC50 of alginic acid relative to IC50 of the sulfated derivative)
1 | Chitosan Sulfate |  | 0.03 | 0.16 | 0.015 |  | 
2 | agar [native (unsulfated) agar] |  | 30 |  |  |  | 
3 | Alginic acid |  | 20 | 42 | 4 |  | 1.0

Results, then the substance that gave them:

Row | Inhibition of cholesterol esterase (in words) [1] | IC50 [1] [nM] | IC50 [2] [nM] | IC50, inhibition of cholesterol esterase (cholesteryl oleate hydrolysis) [1] [µg/mL] | Stability of inhibitory activity under baking conditions / elevated temperatures (cholesterol esterase) | Enhancement Factor ([1]; IC50 of alginic acid relative to IC50 of the sulfated derivative) | Substance
4 | does not inhibit cholesterol esterase |  |  |  |  |  | pectin [native, unsulfated pectin]
5 |  | 0.06 | 0.14 |  |  |  | Chitin Sulfate
6 |  | 0.02 | 0.06 |  | stable under baking conditions |  | Cellulose Sulfate
